Measurements published in patent US5618681A, “Polyaromatic hydrocarbon (PAH) immunoassay method, its components and a kit for use in performing the same” (priority 1995, dated 1997).

System: anti-PAH monoclonal antibody
Assay: PAH immunoassay (competitive, antibody coated tubes): cross-reactivity with the anti-PAH monoclonal antibody
Format: binding, Balb/c mice
Settings: for Percent Cross-Reactivity: phenanthrene 100%; for detection in the immunoassay: at 200 ppm levels
Method: Female Balb/c mice received a primary subcutaneous immunization with 50 ug of β-methylnaphthalene derivatized to bovine serum albumin in adjuvant (MPL+TDM Emulsion, RIBI Immunochem Research, Inc., Hamilton, Mont.). Subcutaneous secondary injections (25 ug) were given at day 21, 35, and then monthly. […] Hybridoma cultures producing monoclonal antibodies recognizing free hapten by EIA were cloned by limiting dilution.
Antibody coated tubes were prepared by passively coating polystyrene (12X75 mm, NUNC) tubes with the monoclonal F12-3C8 antibody diluted in PBS and incubating overnight. The NUNC polystyrene tubes were rinsed with hexane prior to use and were all from the same lot.
10 g of a soil sample were placed in an extraction vial containing 20 mL of methanol and 5 steel pellets (6 mm) and the vial and its contents shaken for 1 minute to disperse the soil particles and extract the PAHs. The sample was then filtered to clarify the sample extract using a glass fiber depth filter and a 0.45μ Teflon filter. 45 uL of the clarified filtrate sample was mixed with 955 μl of 10 mM PBS (pH=7.4) and the resulting mixture added to lyophilized enzyme conjugate reagent (0.3 μg) and mixed. At the same time, 2×45 uL of the phenanthrene standard are similarly treated. The sample and the two standards were then poured into three identical antibody coated tubes, respectively, and the resulting solution mixed. The resulting solution was incubated for 10 minutes at ambient temperature and then washed 4X with a wash buffer (detergent-saline solution). 250 uL of tetramethylbenzidene solution (KP Laboratories, Cat. No. 50-76-02) was added along with 250 uL of hydrogen peroxide solution (KPL, Cat. No. 50-65-02) and the resultant solution mixed. After incubating for 2.5 minutes the color development reaction was stopped with 250 uL of stop solution (1M sulfuric acid).
The optical density (OD) of the test sample was compared to the OD of the phenanthrene standard (0.65 ppm soil equivalents) which was tested simultaneously with the sample. If the sample OD is less than the standard OD, the sample contains more than 1 ppm PAH. […] Other concentration ranges can be assessed by diluting the test samples with suitable diluents, as long as they are non-reactive with the components of the assay.
In addition other potentially cross-reactive compounds were tested.

[1] = Non-EPA PAHs and other compounds

Row | Structure (SMILES) | Percent Cross-Reactivity [1] [%] | Concentration Giving a Positive Result (ppm, soil equivalent) [1] [ppm] | Percent Cross-Reactivity (Method 8310 EPA PAHs) [%] | Concentration Giving A Positive Result (ppm, soil equivalent) (Method 8310 EPA PAHs) [ppm] | detection in the immunoassay | concentration in soil at which the PAH immunoassay will provide a positive result (in soils) [ppm]
1 | Clc1cccc2ccccc12 [1-chloronaphthalene] | 1.7 | 59 | – | – | – | –
2 | Cc1cccc2ccccc12 [1-methylnaphthalene] | 1.8 | 54 | – | – | – | –
3 | Clc1cc(Cl)c(Cl)cc1Cl [2,3,5,6-Tetrachlorobenzene] | < 0.5 | > 200 | – | – | – | –
4 | Clc1cc(Cl)cc(Cl)c1 [2,4,6-Trichlorobenzene] | < 0.5 | > 200 | – | – | – | –
5 | Cc1ccc2ccccc2c1 [2-methylnaphthalene] | 1.7 | 58 | – | – | – | –
6 | c1cc2c3c(cccc3c1)CC2 [Acenaphthene] | – | – | 12 | 8.1 | – | –
7 | C1=Cc2cccc3cccc1c23 [Acenaphthylene] | – | – | 13 | 7.5 | – | –
8 | c1ccc2cc3ccccc3cc2c1 [Anthracene] | – | – | 123 | 0.81 | – | –
9 | c1ccccc1 [Benzene] | < 0.5 | > 200 | – | – | not detected | –
10 | c1ccc2cc3c(ccc4ccccc43)cc2c1 [Benzo(a)anthracene] | – | – | 64 | 1.6 | – | –
11 | c1ccc2c(c1)cc1ccc3cccc4ccc2c1c34 [Benzo(a)pyrene] | – | – | 12 | 8.3 | – | ≥ 8.3
12 | c1ccc2c(c1)-c1cccc3c1c-2cc1ccccc13 [Benzo(b)fluoranthene] | – | – | 22 | 4.6 | – | –
13 | c1cc2ccc3ccc4ccc5cccc6c(c1)c2c3c4c56 [Benzo(ghi)perylene] | – | – | < 0.5 | > 200 | – | –
14 | c1ccc2cc3c(cc2c1)-c1cccc2cccc-3c12 [Benzo(k)fluoranthene] | – | – | 11 | 9.4 | – | –
15 | CCCCC(CC)COC(=O)c1ccccc1C(=O)OCC(CC)CCCC (centres unmarked) [Bis(2-ethylhexyl) phthalate] | < 0.5 | > 200 | – | – | – | –
16 | c1ccc2c(c1)ccc1c3ccccc3ccc21 [Chrysene] | – | – | 84 | 1.2 | – | –
17 | c1ccc2c(c1)ccc1cc3c(ccc4ccccc43)cc12 [Dibenzo(a,h)anthracene] | – | – | < 0.5 | > 200 | – | –
18 | c1ccc2c(c1)oc1ccccc12 [Dibenzofuran] | 7.2 | 14 | – | – | – | –
19 | c1ccc2c(c1)-c1cccc3cccc-2c13 [Fluoranthene] | – | – | 73 | 1.4 | – | –
20 | c1ccc2c(c1)Cc1ccccc1-2 [Fluorene] | – | – | 67 | 1.5 | – | –
21 | c1ccc2c(c1)-c1ccc3ccc4cccc5cc-2c1c3c45 [Indeno(1,2,3-cd)pyrene] | – | – | 9.4 | 11 | – | –
22 | c1ccc2ccccc2c1 [Naphthalene] | – | – | 0.5 | 200 | – | –
23 | Clc1cc(Cl)c(Cl)c(Cl)c1Cl [Pentachlorobenzene] | < 0.5 | > 200 | – | – | – | –
24 | Oc1c(Cl)c(Cl)c(Cl)c(Cl)c1Cl [Pentachlorophenol] | < 0.5 | > 200 | – | – | – | –
25 | c1ccc2c(c1)ccc1ccccc12 [Phenanthrene, reference compound] | – | – | 100 | 1.0 | – | –
26 | Oc1ccccc1 [Phenol] | < 0.5 | > 200 | – | – | not detected | –
27 | c1cc2ccc3cccc4ccc(c1)c2c34 [Pyrene] | – | – | 29 | 3.5 | – | –
28 | Cc1ccccc1 [Toluene] | < 0.5 | > 200 | – | – | – | –
